{
  "source": "the NIST ThermoML archive (doi:10.1021/je060354r)",
  "assay": "Boiling temperature at pressure P",
  "conditions": "100 kPa; Liquid; Ebulliometric method (Recirculating still)",
  "note": "Numbers after ± are expanded uncertainties.",
  "data": [
    {"smiles": "CC(C)O", "note": "[propan-2-ol]", "values": [
      {"measurement": "Boiling temperature at pressure P", "result": "81.86 ± 0.22", "unit": "°C"}
    ]}
  ]
}
